# Patent US11426467B2, “Dosage regimes for the administration of an anti-CD25 ADC” (ADC THERAPEUTICS SA, priority 2017, dated 2022)
# Experiment: Steroid administration with ADC, toxicity symptoms reported by subjects
# Format: in vivo
# Settings: steroid given with ADC dosage regimes
smiles,measurement,value
"C[C@@H]1C[C@H]2[C@@H]3CCC4=CC(=O)C=C[C@]4(C)[C@@]3(F)[C@@H](O)C[C@]2(C)[C@@]1(O)C(=O)CO [dexamethasone, (8S,9R,10S,11S,13S,14S,16R,17R)-9-Fluoro-11,17-dihydroxy-17-(2-hydroxyacetyl)-10,13,16-trimethyl-6,7,8,9,10,11,12,13,14,15,16,17-dodecahydro-3H-cyclopenta[a]phenanthren-3-one]",frequency and/or severity of toxicity symptom reported by subjects,reduced the frequency and/or severity of toxicity symptom
